Reference: PubChem BioAssay (NCI)
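Exposure lasted 48 hours, with cells grown in 96-well plates and compounds tested at five concentrations. Here, GI50 denotes the concentration required for 50% inhibition of growth. TGI: total growth inhibition.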

Legend:
Experiment in all cases: DTP human tumour cell line panel, 48 h
[1] = test system: SR leukemia
[2] = test system: OVCAR-3 ovarian
[3] = test system: RPMI-8226 leukemia
[4] = test system: COLO 205 colon
[5] = test system: NCI-H460 lung
[6] = test system: OVCAR-8 ovarian
[7] = test system: A498 renal
[8] = test system: MOLT-4 leukemia
[9] = test system: SF-268 CNS
[10] = test system: HL-60(TB) leukemia
[11] = test system: SF-539 CNS
[12] = test system: UACC-62 melanoma
[13] = test system: SW-620 colon
[14] = test system: ACHN renal
[15] = test system: BT-549 breast
[16] = test system: T-47D breast
[17] = test system: HCC-2998 colon
[18] = test system: HOP-92 NSCLC
[19] = test system: HT29 colon
[20] = test system: U251 CNS
[21] = test system: SK-MEL-2 melanoma
[22] = test system: OVCAR-4 ovarian
[23] = test system: SN12C renal
[24] = test system: SK-MEL-28 melanoma
[25] = test system: NCI-H522 lung
[26] = test system: SK-MEL-5 melanoma
[27] = test system: PC-3 prostate
[28] = test system: RXF 393 renal
[29] = test system: K-562 leukemia
[30] = test system: DU-145 prostate
[31] = test system: NCI-H23 lung
[32] = test system: OVCAR-5 ovarian
[33] = test system: MCF7 breast
[34] = test system: SNB-75 CNS
[35] = test system: SNB-19 CNS
[36] = test system: UACC-257 melanoma
[37] = test system: HOP-62 NSCLC
[38] = test system: CCRF-CEM leukemia
[39] = test system: NCI-H226 lung
[40] = test system: CAKI-1 renal
[41] = test system: SF-295 CNS
[42] = test system: HCT-15 colon
[43] = test system: EKVX NSCLC
[44] = test system: HCT-116 colon
[45] = test system: 786-0 renal
[46] = test system: A549 NSCLC
[47] = test system: NCI/ADR-RES ovarian
[48] = test system: MDA-MB-435
[49] = test system: IGROV1 ovarian
[50] = test system: M14 melanoma
[51] = test system: LOX IMVI melanoma
[52] = test system: SK-OV-3 ovarian
[53] = test system: MDA-MB-231 breast
[54] = test system: UO-31 renal
[55] = test system: HS 578T breast

How did the GI50 [1] turn out when `C/C(=C1\C(=O)Nc2ccccc21)c1cccc(/C(C)=C2/C(=O)Nc3ccccc32)n1` was run?
The GI50 was 4.96 µM.

And the TGI [1]?
Its TGI is > 100 µM.

What about the GI50 [2] of the same compound?
Its GI50 is 4.52 µM.

What about the TGI [2] of the same compound?
The TGI was 28.2 µM.

What about the GI50 [3] of the same compound?
Its GI50 is 4.87 µM.

What about the TGI [3] of the same compound?
The TGI was > 100 µM.

What about the GI50 [4] of the same compound?
Its GI50 is 7.32 µM.

And the TGI [4]?
The TGI was > 100 µM.

What about the GI50 [5] of the same compound?
Its GI50 is 5.08 µM.

And the TGI [5]?
Its TGI is > 100 µM.

And the GI50 [6]?
The GI50 was 6.39 µM.

What about the TGI [6] of the same compound?
Its TGI is 76.8 µM.

What about the GI50 [7] of the same compound?
The GI50 was 4.44 µM.

What about the TGI [7] of the same compound?
The TGI was 34.8 µM.

And the GI50 [8]?
Its GI50 is 6.95 µM.

And the TGI [8]?
The TGI was > 100 µM.

What about the GI50 [9] of the same compound?
Its GI50 is 7.42 µM.

And the TGI [9]?
The TGI was 71.8 µM.

And the GI50 [10]?
The GI50 was 16 µM.

And the TGI [10]?
The TGI was > 100 µM.

What about the GI50 [11] of the same compound?
Its GI50 is 2.49 µM.

What about the TGI [11] of the same compound?
The TGI was 7.99 µM.

What about the GI50 [12] of the same compound?
Its GI50 is 4.56 µM.

And the TGI [12]?
The TGI was 23.2 µM.

And the GI50 [13]?
The GI50 was 7.69 µM.

What about the TGI [13] of the same compound?
The TGI was > 100 µM.

And the GI50 [14]?
The GI50 was 8.56 µM.

What about the TGI [14] of the same compound?
Its TGI is 48.1 µM.

And the GI50 [15]?
The GI50 was 5.43 µM.

And the TGI [15]?
The TGI was 36.5 µM.

And the GI50 [16]?
The GI50 was 4.63 µM.

What about the TGI [16] of the same compound?
Its TGI is > 100 µM.

And the GI50 [17]?
The GI50 was 2.38 µM.

And the TGI [17]?
The TGI was 5.7 µM.

What about the GI50 [18] of the same compound?
Its GI50 is 15.7 µM.

And the TGI [18]?
The TGI was 85.3 µM.

And the GI50 [19]?
The GI50 was 8.09 µM.

And the TGI [19]?
The TGI was > 100 µM.

What about the GI50 [20] of the same compound?
Its GI50 is 7.6 µM.

What about the TGI [20] of the same compound?
Its TGI is > 100 µM.

What about the GI50 [21] of the same compound?
Its GI50 is 63.4 µM.

And the TGI [21]?
The TGI was > 100 µM.

And the GI50 [22]?
Its GI50 is 43 µM.

And the TGI [22]?
The TGI was > 100 µM.

What about the GI50 [23] of the same compound?
Its GI50 is 15.6 µM.

And the TGI [23]?
The TGI was 54.7 µM.

What about the GI50 [24] of the same compound?
Its GI50 is 31.5 µM.

What about the TGI [24] of the same compound?
The TGI was > 100 µM.

What about the GI50 [25] of the same compound?
The GI50 was 9.59 µM.

And the TGI [25]?
Its TGI is 99.5 µM.

What about the GI50 [26] of the same compound?
Its GI50 is 5.67 µM.

And the TGI [26]?
The TGI was 25.4 µM.

What about the GI50 [27] of the same compound?
Its GI50 is 24.4 µM.

What about the TGI [27] of the same compound?
The TGI was > 100 µM.

And the GI50 [28]?
The GI50 was 12.3 µM.

What about the TGI [28] of the same compound?
The TGI was 58.7 µM.

What about the GI50 [29] of the same compound?
The GI50 was 4.35 µM.

What about the TGI [29] of the same compound?
The TGI was > 100 µM.

And the GI50 [30]?
The GI50 was 2.93 µM.

What about the TGI [30] of the same compound?
The TGI was > 100 µM.

And the GI50 [31]?
Its GI50 is 16.8 µM.

And the TGI [31]?
The TGI was 60.5 µM.

And the GI50 [32]?
Its GI50 is 48.4 µM.

What about the TGI [32] of the same compound?
Its TGI is > 100 µM.

And the GI50 [33]?
The GI50 was 3.74 µM.

And the TGI [33]?
The TGI was > 100 µM.

What about the GI50 [34] of the same compound?
The GI50 was 40.2 µM.

What about the TGI [34] of the same compound?
Its TGI is > 100 µM.

What about the GI50 [35] of the same compound?
Its GI50 is 23.1 µM.

What about the TGI [35] of the same compound?
The TGI was > 100 µM.

What about the GI50 [36] of the same compound?
The GI50 was 9.43 µM.

And the TGI [36]?
The TGI was 86 µM.

And the GI50 [37]?
Its GI50 is 15.5 µM.

And the TGI [37]?
The TGI was 74.1 µM.

And the GI50 [38]?
The GI50 was 6.55 µM.

And the TGI [38]?
Its TGI is > 100 µM.

And the GI50 [39]?
Its GI50 is 4.53 µM.

What about the TGI [39] of the same compound?
The TGI was 24.5 µM.

What about the GI50 [40] of the same compound?
Its GI50 is 2.34 µM.

And the TGI [40]?
Its TGI is 24.3 µM.

What about the GI50 [41] of the same compound?
Its GI50 is 18.5 µM.

What about the TGI [41] of the same compound?
The TGI was 85.4 µM.

What about the GI50 [42] of the same compound?
Its GI50 is 4.21 µM.

What about the TGI [42] of the same compound?
The TGI was 34.9 µM.

What about the GI50 [43] of the same compound?
The GI50 was 0.692 µM.

And the TGI [43]?
Its TGI is 5.4 µM.

What about the GI50 [44] of the same compound?
Its GI50 is 9.93 µM.

What about the TGI [44] of the same compound?
Its TGI is > 100 µM.

What about the GI50 [45] of the same compound?
Its GI50 is 17.3 µM.

And the TGI [45]?
Its TGI is 89.6 µM.

What about the GI50 [46] of the same compound?
The GI50 was 7.38 µM.

What about the TGI [46] of the same compound?
The TGI was > 100 µM.

What about the GI50 [47] of the same compound?
The GI50 was 4.93 µM.

And the TGI [47]?
Its TGI is 44.8 µM.

What about the GI50 [48] of the same compound?
The GI50 was 2.57 µM.

What about the TGI [48] of the same compound?
The TGI was 13.4 µM.

And the GI50 [49]?
The GI50 was 35.6 µM.

And the TGI [49]?
Its TGI is > 100 µM.

And the GI50 [50]?
The GI50 was 6.84 µM.

What about the TGI [50] of the same compound?
The TGI was > 100 µM.

What about the GI50 [51] of the same compound?
Its GI50 is 8.4 µM.

And the TGI [51]?
Its TGI is 31 µM.

And the GI50 [52]?
The GI50 was 26.2 µM.

What about the TGI [52] of the same compound?
The TGI was > 100 µM.

And the GI50 [53]?
Its GI50 is 11.5 µM.

And the TGI [53]?
The TGI was 74.7 µM.

What about the GI50 [54] of the same compound?
The GI50 was 24.5 µM.

And the TGI [54]?
Its TGI is > 100 µM.

And the GI50 [55]?
The GI50 was 4.1 µM.

And the TGI [55]?
The TGI was > 100 µM.
